Laboratory results as given in paper PMC10741476, “The Allosteric Regulation of Β-Ureidopropionase Depends on Fine-Tuned Stability of Active-Site Loops and Subunit Interfaces” (Biomolecules, 2023).
Read-outs that look alike come from different tables or passages of the source. Blank lines part the entries; values can stand above or below the molecule they belong to. Residues, ends and D or L forms follow the SMILES beside them.

What was measured:
[1] = target: T1, human β-ureidopropionase (HsβUP) (Homo sapiens, UniProt Q9UBR1); experiment: discontinuous OPA fluorescence assay of beta-alanine formation from NCβA; type: biochemical
T1 construct: gene UPB1
T1 sequence (Q9UBR1 1-384): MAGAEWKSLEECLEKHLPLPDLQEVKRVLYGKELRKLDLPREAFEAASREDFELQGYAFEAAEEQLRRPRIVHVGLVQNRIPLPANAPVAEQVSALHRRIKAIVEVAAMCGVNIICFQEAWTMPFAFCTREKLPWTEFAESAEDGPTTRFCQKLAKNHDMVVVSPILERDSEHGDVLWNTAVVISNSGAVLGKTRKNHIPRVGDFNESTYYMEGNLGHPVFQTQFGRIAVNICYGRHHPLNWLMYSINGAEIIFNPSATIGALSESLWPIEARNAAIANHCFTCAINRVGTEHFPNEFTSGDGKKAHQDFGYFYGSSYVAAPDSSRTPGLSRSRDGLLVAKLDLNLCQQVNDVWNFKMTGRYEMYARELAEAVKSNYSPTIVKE
From the text: discontinuous OPA fluorescence assay of beta-alanine formation from NCβA on human β-ureidopropionase (HsβUP)

[2] = substrate: NC(=O)NCCC(=O)O; experiment: as above; type: biochemical, Homo sapiens; details: pH 6.5, 37 °C, 100 mM MES, 50 mM NaCl

Molecule: CC(C)C(=O)O [isobutyric acid]
Ki [1]: 2270 µM

B1: human β-ureidopropionase (HsβUP) (Homo sapiens) (protein)
chain: T1 sequence (Q9UBR1 1-384)
Km [2]: 101.4 µM

Further lines, results first:

Ki [1]: 151 µM
Molecule: CC(C)(N)C(=O)O [2-aminoisobutyric acid]

Ki ([1]; pH 6.5, 37 °C, 100 mM MES, 50 mM NaCl, competitive mode assumed (data best fitted as non-competitive), substrate NCβA): 237 µM
Molecule: NCC(=O)NCC(=O)O [glycyl-glycine] (H-Gly-Gly-OH)
